From ChEMBL document CHEMBL5260831, “Recent advance in oxazole-based medicinal chemistry” (Eur J Med Chem, 2018)
≈ marks a conversion by molar mass, not a printed value.

Assays:
[1] = system: Staphylococcus aureus; experiment: Antibiofilm activity against methicillin-sensitive Staphylococcus aureus ATCC 35556 assessed as inhibition of biofilm formation; type: functional
[2] = system: Pseudomonas aeruginosa; experiment: Antibacterial activity against Pseudomonas aeruginosa MTCC 741 assessed as microbial growth inhibition measured after 24 hrs by paper disc diffusion technique; type: functional
[3] = system: Bacillus cereus; experiment: Antibacterial activity against Bacillus cereus MTCC 430 assessed as microbial growth inhibition measured after 24 hrs by paper disc diffusion technique; type: functional
[4] = system: HeLa; experiment: Antiproliferative activity in human HeLa cells assessed as cell growth inhibition; type: functional, cell-based
[5] = system: MCF7; experiment: Antiproliferative activity in human MCF7 cells assessed as cell growth inhibition; type: functional, cell-based
[6] = system: A549; experiment: Antiproliferative activity in human A549 cells assessed as cell growth inhibition; type: functional, cell-based
[7] = system: Staphylococcus aureus; experiment: Antibacterial activity against Staphylococcus aureus assessed as bacterial growth inhibition by disc diffusion assay; type: functional
[8] = system: Escherichia coli; experiment: Antibacterial activity against Escherichia coli assessed as bacterial growth inhibition by microdilution assay; type: functional
[9] = system: Mycolicibacterium smegmatis; experiment: Antibacterial activity against Mycobacterium smegmatis mc2155ATCC-700084 assessed as bacterial growth inhibition measured after 18 hrs by microplate reader based analysis; type: functional
[10] = system: HepG2; experiment: Antiproliferative activity in human HepG2 cells assessed as cell growth inhibition; type: functional, cell-based
[11] = target: Protein kinase C beta type (Homo sapiens, UniProt P05771); experiment: Inhibition of PKCB (unknown origin)
[12] = system: A549; experiment: Antiproliferative activity in human A549 cells assessed as cell growth inhibition measured after 72 hrs by MTT assay; type: functional, cell-based; conditions: A549, 72 h
[13] = system: MCF7; experiment: Antiproliferative activity in human MCF7 cells assessed as cell growth inhibition measured after 48 hrs by MTT assay; type: functional, cell-based; conditions: MCF7, 48 h
[14] = system: A549; experiment: Antiproliferative activity in human A549 cells assessed as cell growth inhibition measured after 48 hrs by MTT assay; type: functional, cell-based; conditions: A549, 48 h
[15] = system: Mycobacterium tuberculosis; experiment: Antimycobacterial activity against Mycobacterium tuberculosis H37Rv ATCC27294 assessed as inhibition of bacterial growth by agar dilution assay; type: functional
[16] = target: Cannabinoid receptor 1 (Homo sapiens) (UniProt P21554); experiment: Binding affinity to CB1 receptor (unknown origin); conditions: filed as agonist
[17] = target: T1, Alpha-glucosidase (Saccharomyces cerevisiae S288c, UniProt P53341+P38158+P07265); experiment: Inhibition of yeast alpha-glucosidase using p-nitrophenyl-alpha-D-glucopyranoside as substrate by absorbance based analysis; type: protein assay
[18] = target: T1, Alpha-glucosidase; experiment: Inhibition of yeast alpha-glucosidase using p-nitrophenyl-alpha-D-glucopyranoside as substrate; type: protein assay
[19] = system: HepG2; experiment: Antiproliferative activity in human HepG2 cells assessed as cell growth inhibition measured after 72 hrs by MTT assay; type: functional, cell-based; conditions: HepG2, 72 h
[20] = system: Leishmania major; experiment: Leishmanicidal activity against Leishmania major JISH118 promastigote infected in human THP-1 macrophage cells assessed as reduction in […]; type: functional, organism-based; conditions: JISH118, THP-1
[21] = system: P388; experiment: Antiproliferative activity gainst mouse P388 cells assessed as cell growth inhibition; type: functional, cell-based
[22] = system: Rattus norvegicus; experiment: Anti-inflammatory activity against Carrageenan-induced paw edema in albino rat ulcerogenic activity at 20 mg/kg, po relative to control; type: functional
[23] = system: Rattus norvegicus; experiment: Anti-inflammatory activity against Carrageenan-induced paw edema in rat ulcerogenic activity relative to control; type: functional
[24] = system: MDA-MB-231; experiment: Antiproliferative activity in human MDA-MB-231 cells assessed as cell growth inhibition measured after 72 hrs by SRB assay; type: functional, cell-based; conditions: MDA-MB-231, 72 h
[25] = system: SK-HEP1; experiment: Antiproliferative activity in human SK-HEP1 cells assessed as cell growth inhibition measured after 72 hrs by SRB assay; type: functional, cell-based; conditions: SK-HEP1, 72 h
[26] = system: HCT-116; experiment: Antiproliferative activity in human HCT-116 cells assessed as cell growth inhibition measured after 72 hrs by SRB assay; type: functional, cell-based; conditions: HCT-116, 72 h
[27] = Antiproliferative activity in human SNU-601 cells assessed as cell growth inhibition measured after 72 hrs by SRB assay; type: functional, cell-based; conditions: SNU-601, 72 h
[28] = system: A549; experiment: Antiproliferative activity in paclitaxel-resistant human A549 cells assessed as cell growth inhibition measured after 72 hrs by SRB assay; type: functional, cell-based; conditions: A549, 72 h
[29] = system: A549; experiment: Antiproliferative activity in human A549 cells assessed as cell growth inhibition measured after 72 hrs by SRB assay; type: functional, cell-based; conditions: A549, 72 h
[30] = system: Rattus norvegicus; experiment: Anti-inflammatory activity against Carrageenan-induced paw edema in Wistar albino rat ulcerogenic activity relative to control; type: functional

Sequence of Protein kinase C beta type (P05771 whole entry): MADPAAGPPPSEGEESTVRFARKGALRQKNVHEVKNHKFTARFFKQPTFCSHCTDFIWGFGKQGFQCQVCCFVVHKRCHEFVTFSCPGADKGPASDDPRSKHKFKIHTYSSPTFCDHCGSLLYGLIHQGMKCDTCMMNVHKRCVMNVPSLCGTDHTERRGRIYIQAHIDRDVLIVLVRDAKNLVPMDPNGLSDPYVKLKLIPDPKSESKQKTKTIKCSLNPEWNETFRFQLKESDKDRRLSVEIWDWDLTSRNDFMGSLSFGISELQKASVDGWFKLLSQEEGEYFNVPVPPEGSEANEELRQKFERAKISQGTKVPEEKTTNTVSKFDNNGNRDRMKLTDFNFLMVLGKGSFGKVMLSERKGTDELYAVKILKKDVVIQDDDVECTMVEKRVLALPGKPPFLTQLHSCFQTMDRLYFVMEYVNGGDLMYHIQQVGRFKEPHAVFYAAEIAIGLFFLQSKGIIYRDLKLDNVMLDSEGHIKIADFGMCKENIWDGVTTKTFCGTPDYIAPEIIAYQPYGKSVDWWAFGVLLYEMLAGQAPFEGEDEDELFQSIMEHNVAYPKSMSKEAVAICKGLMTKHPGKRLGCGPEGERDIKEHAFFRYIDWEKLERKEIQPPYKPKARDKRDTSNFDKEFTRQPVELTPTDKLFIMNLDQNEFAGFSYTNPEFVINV
Sequence of Cannabinoid receptor 1 (Homo sapiens) (P21554 whole entry): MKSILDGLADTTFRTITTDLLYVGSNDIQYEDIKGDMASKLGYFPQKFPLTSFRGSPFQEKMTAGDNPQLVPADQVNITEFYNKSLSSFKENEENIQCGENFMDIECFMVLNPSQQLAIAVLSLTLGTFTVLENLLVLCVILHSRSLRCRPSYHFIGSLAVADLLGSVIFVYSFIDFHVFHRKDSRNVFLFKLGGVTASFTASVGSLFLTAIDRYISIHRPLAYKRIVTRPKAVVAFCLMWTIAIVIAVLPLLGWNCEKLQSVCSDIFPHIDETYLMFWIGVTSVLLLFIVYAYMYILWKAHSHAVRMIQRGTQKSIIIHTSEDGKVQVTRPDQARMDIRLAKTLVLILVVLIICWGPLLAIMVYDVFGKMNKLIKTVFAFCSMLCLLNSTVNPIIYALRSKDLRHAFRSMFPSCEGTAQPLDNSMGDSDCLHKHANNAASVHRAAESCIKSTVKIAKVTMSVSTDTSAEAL

Q: For Cn1c(-c2nnc(-c3cc(Br)c(Br)[nH]3)o2)cc(Br)c1Br, which MBIC [1] is on record?
A: 0.78 µg/mL

Q: For O=c1cc(Nc2ccc(-c3cc(-c4ccc(Cl)cc4Cl)on3)cc2)c2ccccc2o1, which MIC [2] is on record?
A: 12.5 µg/mL (≈ 27.8 µM)

Q: And the MIC [3]?
A: 12.5 µg/mL (≈ 27.8 µM)

Q: With Cc1ncc(-c2cnc3ccccc3c2)o1 as the compound, how does the IC50 [4] read?
A: 4.6 µM

Q: What about the IC50 [5] of the same compound?
A: 4.6 µM

Q: And the IC50 [6]?
A: 4.6 µM

Q: For COc1ccc(-c2nnc(SCCSc3nnc(-c4c[nH]c5ccccc45)n3N)o2)cc1, which MIC [7] is on record?
A: 2 µg/mL (≈ 4.3 µM)

Q: And the MIC [8]?
A: 2 µg/mL

Q: Which MIC [9] does the source give for C/C=C(C)/C=C(\C)[C@@H](O)[C@H](C)[C@@H](O)[C@H](O)[C@@H]1C/C=C\C=C\[C@@H](O)C[C@H](O)[C@@H](C)c2nc(cs2)/C=C(\CCCCCC)C(=O)O1 here?
A: 16 µg/mL (≈ 25.3 µM)

Q: For CC(=O)Oc1ccccc1C1OC(c2ccncc2)=NN1C(C)=O (stereo unspecified), which IC50 [5] is on record?
A: 50 µM

Q: What about the IC50 [10] of the same compound?
A: 50 µM

Q: Which results are given for CO[C@@H]1[C@H](N(C)c2ncc(-c3ccccc3)o2)C[C@H]2C[C@]1(C)n1c3ccccc3c3c4c(c5c6ccccc6n2c5c31)C(=O)NC4?
A: IC50 [11]: 0.5 µM; IC50 [12]: 0.75 µM

Q: With CC1=NN(c2ccccc2)C(=O)/C1=N/Nc1cccc(-c2nc3ccccc3o2)c1 as the compound, how does the IC50 [13] read?
A: 17 µM

Q: And the IC50 [14]?
A: 15.5 µM

Q: For C/C=C(C)\C=C(/C)[C@@H](O)[C@H](C)[C@@H](O)[C@@H]1OC(=O)/C(CCCCCC)=C/c2coc(n2)[C@H](C)[C@@H](O)C[C@H](O)/C=C/C=C\C[C@@H]1O, which MIC [9] is on record?
A: 64 µg/mL (≈ 104 µM)

Q: With Cc1nnc(-c2cc(-c3ccc(Cl)cc3)n(-c3ccc(NC(=O)c4ccccc4)cc3)n2)o1 as the compound, how does the MIC [15] read?
A: 3.13 µg/mL (≈ 6.87 µM)

Q: With c1ccc(Cc2noc(-c3cn(CCN4CCCC4)c4ccccc34)n2)cc1 as the compound, how does the pKb [16] read?
A: 7.2

Q: For Cc1ncc(-c2ccc3ccccc3c2)o1, which IC50 [4] is on record?
A: 4.6 µM

Q: And the IC50 [5]?
A: 4.6 µM

Q: What about the IC50 [6] of the same compound?
A: 4.6 µM

Q: Which MIC [15] does the source give for COc1ccc(-c2cc(-c3nnc(C)o3)nn2-c2ccc(NC(=O)c3ccc(F)cc3)cc2)cc1 here?
A: > 50 µg/mL

Q: What does the source list for O=[N+]([O-])c1ccc2cc(-c3nnc(-c4cccc(O)c4O)o3)oc2c1?
A: IC50 [17]: 12.75 µM; IC50 [18]: 2 µM

Q: With COc1ccc(-c2nnc(-c3cc(Br)c(Br)n3C)o2)cc1 as the compound, how does the MBIC [1] read?
A: 0.78 µg/mL

Q: For COc1ccc(-c2cc(-c3nnc(C)o3)nn2-c2ccc(NC(=O)c3ccccc3)cc2)cc1, which MIC [15] is on record?
A: > 50 µg/mL

Q: For Nc1ccc(-c2nnc(SCCSc3nnc(-c4c[nH]c5ccccc45)n3N)o2)cc1, which MIC [7] is on record?
A: 2 µg/mL (≈ 4.44 µM)

Q: What about the MIC [8] of the same compound?
A: 2 µg/mL

Q: With Cn1c(-c2nnc(-c3ccc(Cl)cc3Cl)o2)cc(Br)c1Br as the compound, how does the MBIC [1] read?
A: 0.39 µg/mL

Q: For Brc1ccccc1-c1nc(-c2ccccc2)co1, which IC50 [19] is on record?
A: 16.9 µM

Q: Which IC50 [20] does the source give for O=C(NNC(=S)c1ccc(C(F)(F)F)cc1)c1ccc(-c2nnc(-c3ccc4ncccc4c3)o2)cc1 here?
A: 0.1 µM

Q: With O=[N+]([O-])c1ccccc1-c1nc(-c2ccccc2)co1 as the compound, how does the IC50 [19] read?
A: 56.5 µM

Q: Which MIC [9] does the source give for C/C=C(C)/C=C(\C)[C@@H](O)[C@H](C)[C@@H](O)[C@@H]1OC(=O)/C(CCCCCC)=C/c2coc(n2)[C@H](C)[C@@H](O)C[C@H](O)/C=C/C=C\C[C@@H]1O here?
A: 64 µg/mL (≈ 104 µM)

Q: For CO[C@@H]1[C@H](N(C)c2ncc(-c3c[nH]c4ccccc34)o2)C[C@H]2C[C@]1(C)n1c3ccccc3c3c4c(c5c6ccccc6n2c5c31)C(=O)NC4, which IC50 [11] is on record?
A: 0.5 µM

Q: What about the IC50 [12] of the same compound?
A: 0.45 µM

Q: For Cc1nnc(-c2cc(-c3ccc(Cl)cc3)n(-c3ccc(NC(=O)c4ccccc4Cl)cc3)n2)o1, which MIC [15] is on record?
A: 1.56 µg/mL (≈ 3.18 µM)

Q: Which IC50 [21] does the source give for CCC[C@@H]1NC(=O)C2C[C@H](C)CN2C(=O)[C@@H](NC=O)CNC(=O)[C@H](CSSC[C@@H]2NC(=O)c3coc(n3)[C@H](C)NC(=O)C(=O)[C@H](CCC)NC(=O)C3C[C@H](C)CN3C(=O)[C@@H](NC=O)CNC2=O)NC(=O)c2coc(n2)[C@H](C)NC(=O)C1=O (stereo partly specified) here?
A: 0.83 µM

Q: With CC(=O)Oc1ccc(-c2nc(-c3ccccc3)co2)cc1 as the compound, how does the IC50 [19] read?
A: 16.6 µM

Q: For O=C(CCN1CCN(c2ccc([N+](=O)[O-])cc2)CC1)Nc1ccc2oc(Cc3ccc(Cl)cc3)nc2c1, which inhibition in vivo at 20 mg/kg [22] is on record?
A: 81.7%

Q: Which “inhibition (INH)” value [23] does the source give for COc1cc(-c2nnc(SCC(=O)Nc3ccc(/C(C)=N/O)cc3)o2)cc(OC)c1OC here?
A: 96.67%

Q: Which results are given for O=[N+]([O-])c1ccc2cc(-c3nnc(-c4ccccc4F)o3)oc2c1?
A: IC50 [17]: 12.75 µM; IC50 [18]: 2 µM

Q: With O=[N+]([O-])c1ccc2cc(-c3nnc(-c4ccc(O)cc4O)o3)oc2c1 as the compound, how does the IC50 [17] read?
A: 12.75 µM

Q: And the IC50 [18]?
A: 2 µM

Q: With COC(CC1OC(=O)CC(O)C/C=C/C(=O)C(C)C(OC)c2coc(n2)-c2coc(n2)-c2coc(n2)/C=C\CCC1C)C(C)CCC(=O)C(C)C(C/C=C/N(C)C=O)OC (stereo unspecified) as the compound, how does the IC50 [24] read?
A: 0.04 µM

Q: And the IC50 [25]?
A: 0.08 µM

Q: And the IC50 [26]?
A: 0.073 µM

Q: And the IC50 [27]?
A: 0.107 µM

Q: What about the IC50 [28] of the same compound?
A: 0.022 µM

Q: What about the IC50 [29] of the same compound?
A: 0.024 µM

Q: For Clc1ccccc1-c1nnc(Cn2c(CN3CCOCC3)nc3ccccc32)o1, which “inhibition (INH)” value [30] is on record?
A: 74.17%

Q: With Cc1ncc(-c2cccnc2)o1 as the compound, how does the IC50 [4] read?
A: 4.6 µM

Q: What about the IC50 [5] of the same compound?
A: 4.6 µM

Q: What about the IC50 [6] of the same compound?
A: 4.6 µM

Q: With Cn1c(-c2nnc(-c3ccc(Cl)cc3)o2)cc(Br)c1Br as the compound, how does the MBIC [1] read?
A: 0.78 µg/mL

Q: For CN[C@H](CC(C)C)C(=O)N[C@H]1C(=O)N[C@@H](CC(N)=O)C(=O)N[C@H]2C(=O)N[C@H]3C(=O)N[C@H](C(=O)N[C@H](C(=O)O)c4cc(O)cc(O)c4-c4cc3ccc4O)[C@H](O)c3ccc(c(Cl)c3)Oc3cc2cc(c3O[C@@H]2O[C@H](CO)[C@@H](O)[C@H](O)[C@H]2O[C@H]2C[C@](C)(N)[C@H](O)[C@H](C)O2)Oc2ccc(cc2Cl)[C@H]1O [VANCOMYCIN], which MBIC [1] is on record?
A: 3.125 µg/mL
